The EC50 is the concentration that produces a half-maximal response. As a reminder, the AUC(0-inf) is total exposure, with the tail of the curve extrapolated. Broadly, the solubility is the dissolved amount per volume that the medium holds. For orientation: Cmax means the highest concentration seen after dosing. For orientation: IC50 means the concentration at which inhibition is half-maximal. A higher IC50 goes with weaker potency. For orientation: logD means the decadic logarithm of the distribution of all forms, ionised or not, between an organic phase and buffer at a given pH. A low value points to lower lipophilicity. In general, Tmax refers to the time at which the peak concentration occurs. One may read the AUC as concentration integrated over time. Higher therefore signals more exposure. Usually ED50 stands for the midpoint of the dose-response relation.

In brackets after ≈: the same amount, converted by molar mass.

The test system of data set [1] is Plasmodium falciparum. Nature of the data set: Antimalarial activity against Plasmodium falciparum 3D7 by [3H]hypoxanthine incorporation assay in presence of human serum. It counts as functional, organism-based.
Data set [2] is described as follows: AUC (0 to infinity) in Swiss outbred mouse plasma at 20 mg/kg, po. It counts as ADME, organism-based. The arrangement: time infinity, dose 20 mg/kg, route oral.
For data set [3], the system named is Mus musculus. Nature of the data set: Time plasma concentration remained above 1 uM in Swiss outbred mouse plasma at 20 mg/kg, po. It counts as ADME, organism-based. Also noted: dose 20 mg/kg, route oral. Conditions: in vivo.
In data set [4] the test system is Plasma. Kind of data set: Plasma protein binding in human by chromatographic method. It counts as ADME, cell-free.
For data set [5], the system named is Liver microsomes. Kind of data set: Intrinsic clearance in human liver microsomes. The class given is ADME, Microsome.
Data set [6] can be described thus: Aqueous solubility of the compound at pH 6.5. It counts as physicochemical.
Data set [7] in a line: Terminal elimination half life in Swiss outbred mouse at 20 mg/kg, po. The class given is ADME, organism-based. The arrangement: dose 20 mg/kg, route oral. The following applies: in vivo, read-out: beta t1/2 (converted).
A short description of data set [8]: Cmax in Swiss outbred mouse at 20 mg/kg, po. It counts as ADME, organism-based. The arrangement: dose 20 mg/kg, route oral. Conditions: in vivo.
Data set [9] has as its target T1, Dihydroorotate dehydrogenase (Plasmodium falciparum, UniProt Q54A96).
T1 sequence (Q54A96 whole entry): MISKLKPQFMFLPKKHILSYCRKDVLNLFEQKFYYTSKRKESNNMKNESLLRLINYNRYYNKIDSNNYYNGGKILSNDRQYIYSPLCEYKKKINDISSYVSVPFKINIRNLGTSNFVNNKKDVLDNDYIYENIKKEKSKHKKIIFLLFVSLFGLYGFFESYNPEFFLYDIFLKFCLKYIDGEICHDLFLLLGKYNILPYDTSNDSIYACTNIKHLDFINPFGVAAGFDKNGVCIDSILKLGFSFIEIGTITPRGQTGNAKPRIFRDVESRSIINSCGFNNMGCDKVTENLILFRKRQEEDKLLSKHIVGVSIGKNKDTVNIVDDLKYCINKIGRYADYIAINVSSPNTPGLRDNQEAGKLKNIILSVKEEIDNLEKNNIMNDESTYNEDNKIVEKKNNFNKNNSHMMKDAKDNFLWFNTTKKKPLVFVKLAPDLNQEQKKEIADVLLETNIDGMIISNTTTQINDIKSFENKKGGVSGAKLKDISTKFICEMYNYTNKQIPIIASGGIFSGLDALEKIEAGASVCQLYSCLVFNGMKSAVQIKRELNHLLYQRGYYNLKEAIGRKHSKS
Description: Inhibition of Plasmodium falciparum C-terminal hexa-His tagged DHODH expressed in Escherichia coli by DCIP reduction assay

In data set [10] the target is Dihydroorotate dehydrogenase (quinone), mitochondrial (Homo sapiens, UniProt Q02127).
Description: Inhibition of human C-terminal hexa-His tagged DHODH expressed in Escherichia coli by DCIP reduction assay
Data set [11] has as its system Liver. Kind of data set: Intrinsic clearance in mouse liver microsomes. It counts as ADME, Microsome.
Data set [12] in a line: Inhibition of Plasmodium berghei C-terminal hexa-His tagged DHODH expressed in Escherichia coli by DCIP reduction assay.
Data set [13] in a line: Lipophilicity, log D of the compound at pH 7.4. The class given is physicochemical. The following applies: buffer.
A short description of data set [14]: in vivo. Conditions: Swiss outbred, mouse, po, 20 mg/kg.
Data set [15] relates to Mus musculus. Nature of the data set: AUC (0 to 10 hrs) in human RBC engrafted NOD-SCID IL-2Rgamma-null mouse infected with Plasmodium falciparum 3D7 0087/N9 at 10 mg/kg, po. The arrangement: time < 10 hr, dose 10 mg/kg, route oral. It counts as ADME, organism-based, Plasma. The following applies: in vivo.
For data set [16], the system named is Plasmodium falciparum. Kind of data set: Antimalarial activity against Plasmodium falciparum 3D7 0087/N9 infected in human RBC engrafted NOD-SCID IL-2Rgamma-null mouse assessed as reduction in parasitemia administered orally 3 days post infection qd for 4 days measured 24 hrs after final dose by FACS analysis. The class given is functional. Conditions: 3D7 0087/N9, po. For orientation: In flow cytometry, cells or beads pass a laser one at a time.

Data set [17] relates to Mus musculus. Kind of data set: AUC (0 to 10 hrs) in human RBC engrafted NOD-SCID IL-2Rgamma-null mouse at 10 mg/kg, po. The following applies: in vivo. The class given is ADME, organism-based, Plasma. Also noted: time < 10 hr, dose 10 mg/kg, route oral.
Data set [18] in a line: in vivo. Conditions: NOD-SCID IL-2Rgamma-null, mouse, po, 10 mg/kg.
Data set [19] can be described thus: Cmax in human RBC engrafted NOD-SCID IL-2Rgamma-null mouse at 10 mg/kg, po. It counts as ADME, organism-based. The arrangement: dose 10 mg/kg, route oral. The following applies: in vivo.
Data set [20] in a line: in vivo. The following applies: NOD-SCID IL-2Rgamma-null, mouse, po, 10 mg/kg. This is another data set of the same source.
The nature of data set [21]: Cmax in human RBC engrafted NOD-SCID IL-2Rgamma-null mouse infected with Plasmodium falciparum 3D7 0087/N9 at 10 mg/kg, po. Conditions: in vivo. The class given is ADME, organism-based. The arrangement: dose 10 mg/kg, route oral.

Dihydroorotate dehydrogenase (quinone), mitochondrial, sequence (Q02127 whole entry): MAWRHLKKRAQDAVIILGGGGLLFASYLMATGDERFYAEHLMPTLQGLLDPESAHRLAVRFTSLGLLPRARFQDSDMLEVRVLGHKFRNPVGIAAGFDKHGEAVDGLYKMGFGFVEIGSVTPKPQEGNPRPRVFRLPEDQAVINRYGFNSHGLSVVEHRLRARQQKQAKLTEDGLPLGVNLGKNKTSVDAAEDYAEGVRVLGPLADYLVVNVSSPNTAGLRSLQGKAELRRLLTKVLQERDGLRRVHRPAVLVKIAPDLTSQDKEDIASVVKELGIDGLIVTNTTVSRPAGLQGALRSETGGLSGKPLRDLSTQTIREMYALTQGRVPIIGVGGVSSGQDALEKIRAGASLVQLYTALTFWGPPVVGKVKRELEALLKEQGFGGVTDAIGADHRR

For `CCc1nc2nc(C)cc(Nc3ccc(C(F)(F)F)cc3)n2n1`, in data set [1], the EC50 stood at 58 nM. The AUC(0-inf) in data set [2] is 27.1 µM·h. Also, in data set [3], the Time came to 5 h. In data set [4], this molecule showed a PPB of 87.5%. In addition, the Intrinsic clearance in data set [5] is less than 5 µL/min/mg; in data set [11] it was 14.4 µL/min/mg. The molecule also displayed a solubility in data set [6] of 39 µM (≈ 12.5 µg/mL). Moreover, the half-life in [7] was 8.4 h. Besides, in data set [8], the highest concentration (Cmax) is 12.6 µM. In addition, the IC50 was 87 nM in data set [9], greater than 100000 nM in [10] and 760 nM in [12]. In data set [13], this molecule yielded a logD of 3. Besides, in [14], the Tmax is 1 h.

Turning to `CCOc1nc2nc(C)cc(Nc3ccc(S(F)(F)(F)(F)F)cc3)n2n1`, the EC50 in data set [1] was 100 nM. In data set [2], this molecule showed an AUC(0-inf) of 10.1 µM·h. The Time in data set [3] is 3 h. Further, in data set [4], the PPB was 97.7%. Also, the Intrinsic clearance is less than 5 µL/min/mg in data set [5] and 11.3 µL/min/mg in [11]. In data set [6], this molecule had a solubility of 4 µM (≈ 1.58 µg/mL). Further, in [7], the half-life is 2.7 h. This molecule displayed a peak concentration (Cmax) in data set [8] of 1.1 µM. For the same molecule, the results for the half-maximal inhibitory concentration (IC50) in data set [9], in [10] and in data set [12] were 57 nM, greater than 100000 nM and 470 nM, respectively. Further, the logD in [13] stood at 3.4. For the same molecule, the Tmax in data set [14] was 1 h.

Consider `Cc1cc(Nc2cc(F)c(C(F)(F)F)c(F)c2)n2ncnc2n1`, for which the AUC in [15] worked out at 3173 µM·min; in [17] it was 3848 µM·min. Also, the ED50 in data set [16] turned out to be 19 mg/kg. Also, in data set [16], the ED90 amounted to 59 mg/kg. Further, the Tmax amounted to 3.3 h in data set [18] and 2 h in data set [20]. The Cmax in [19] worked out at 8.5 µM; in [21] it was 8.2 µM.

Source of the values: ChEMBL document CHEMBL1955725, “Structure-guided lead optimization of triazolopyrimidine-ring substituents identifies potent Plasmodium falciparum dihydroorotate dehydrogenase inhibitors with clinical candidate potential” (J Med Chem, 2011).
